Source: paper PMC10495297, “Three new amide derivatives from the fungus Alternaria brassicicola” (Natural Products and Bioprospecting, 2023)

Assays:
[1] = MTT cytotoxicity assay, HepG2; format: cell-based; settings: human, HepG2 cells, 0.064 to 40 μM
Description: (§1) Compounds 1–6 were tested for the cytotoxicity against six cell lines, including five human cancer cell lines (HepG2, Hep3B, HT-29, HeLa, and OCVAR) and the normal liver cell LO2.
(§2) Compounds 1–6 were evaluated for the cytotoxicity against five human cancer cell lines and normal LO2, including OCVaR, HepG2, HeLa, HT-29, and Hep3B, by a previously reported method The tested cells were purchased from the Cell Bank of Chinese Academy of Science, Shanghai, China. For all cell lines, 5000 cells/ well were seeded into 96-well plates (n = 3) and cultured for 18 h, then exposed to the test compounds at concentrations ranging from 0.064 to 40 μM for 48 h, with cis-platin as the positive control. Briefly, 10 μL/well of MTT was added and cultured for another 4 h before removing medium and adding 100 μL of DMSO. The absorbance at 490 nm was detected, and complete medium containing only 0.1% DMSO was defined as 100% and blank well as 0%. The concentration−response relationships were analyzed using Graphpad Prism Software, version 7.0, and IC50 values derived using nonlinear regression analysis fit to a logistic equation.

[2] = MTT cytotoxicity assay, OCVAR; format: cell-based; settings: human, OCVAR cells, 0.064 to 40 μM
Description: as §1, §2

[3] = MTT cytotoxicity assay, HeLa; format: cell-based; settings: human, HeLa cells, 0.064 to 40 μM
Description: as §1, §2

[4] = MTT cytotoxicity assay, normal liver cell LO2; format: cell-based; settings: human, LO2 normal liver cells, 0.064 to 40 μM
Description: as §1, §2

[5] = MTT cytotoxicity assay, HT-29; format: cell-based; settings: human, HT-29 cells, HT-29, MTT, 0.064 to 40 μM
Description: as §1, §2

[6] = MTT cytotoxicity assay, Hep3B; format: cell-based; settings: human, Hep3B cells, 0.064 to 40 μM
Description: as §1, §2

PPAR-γ = tested on: PPAR-γ; set-up: method as in PMID 30525677; settings: cited from earlier work
IKKβ = tested on: IKKβ; set-up: method as in PMID 30095270; settings: cited from earlier work

With `COCc1ccc(C=O)n1CCCC(=O)O` [Compound 5, 4-[2-formyl-5-(methoxymethyl)-1H-pyrrol-1-yl]butanoic acid] the IC50 at 48 h [1] was over 40 µM, the IC50 at 48 h [2] was over 40 µM and the IC50 at 48 h [3] was over 40 µM. For the same compound, the IC50 at 48 h [4] was over 40 µM, the IC50 at 48 h [5] was over 40 µM and the IC50 at 48 h [6] was over 40 µM.
In the case of alterbrassicicene A, the “agonistic action upon PPAR-γ” value (PPAR-γ) is given as “strong agonistic action upon PPAR-γ”.
With `CCCCOC(=O)CCCCNC(C)=O` [Compound 2, butyl 5-acetamidopentanoate] the IC50 at 48 h [1] was over 40 µM, the IC50 at 48 h [2] was over 40 µM and the IC50 at 48 h [3] was over 40 µM. It also gave an IC50 at 48 h [4] of over 40 µM, an IC50 at 48 h [5] of over 40 µM and an IC50 at 48 h [6] of over 40 µM.
In the case of alterbrassicene A, the IKKβ inhibitory effect (IKKβ) is given as “potent IKKβ inhibitory effect”.
